Results on 27 molecules are retold here after patent publication US8609680B2, “2,3-dihydro-1H-inden-1-yl-2,7-diazaspiro[3.5] nonane derivatives” (Pfizer Inc., priority 2010, dated 2013).

Like-named read-outs stand apart in the source and are kept apart here.

For test [1], the target named is T1, human GHSR1a (Homo sapiens, UniProt Q92847).
T1 construct: expressed in transfected cells; host or cells: HEK293 Tetracycline-Inducible cell line, used as membranes
As to the kind of experiment: Human Ghrelin SPA Binding Assay. From the text:
The SPA format was utilized for high throughput screening of test compounds and filter binding served for more comprehensive binding characterization.
Human Ghrelin SPA Binding Assay

The target in test [2] is T1, human GHSR1a. As to the kind of experiment: Human Ghrelin Functional Assay (DELFIA GTP-binding assay). It is filed as biochemical. To be noted: GTP-Europium exchange, human GHSR1a membranes, with and without ghrelin at EC80. The protocol: Human Ghrelin Functional Assay
To measure the ability of test compounds in the present invention to modulate the activity of human GHSR1a (agonize, antagonize, partially agonize, inversely agonize), a DELFIA GTP-binding assay (Perkin Elmer, AD0260 and AD0261) is performed. The assay monitors the ligand-dependent exchange of GDP for GTP. GPCR activation results in an increase in fluorescence as receptor-bound GDP is replaced by Europium-labeled GTP.
Ghrelin functional assays are performed in a final volume of 39.5 μl containing 720 ng human GHSR1a (HEK293 Tetracycline-Inducible cell line expressing the human growth secretagogue receptor la, prepared as membranes), 9 nM GTP-Europium and varying concentrations of test compound or vehicle. To test for receptor antagonism, membranes are incubated in the presence of agonist ghrelin (Anaspec, 24158) at the EC80 concentration, plus test compound or vehicle.
Briefly, test compounds are prepared at room temperature in 384-well plates (Matrix, 4340). […] Samples are then transferred as 6 μl to 384-well filter plates (Pall, 5071) containing 30 μl of 24 μg/ml hGHSR1a membrane and 0.35 mg/ml saponin (Perkin Elmer, AD0261) in basal buffer.
The mixture is incubated 24 minutes at room temperature with gentle shaking, followed by the addition of 3.5 μl of 100 nM GTP-Europium in 50 mM HEPES, pH 7.4. Samples are shielded from light and incubated for 90 minutes further at room temperature with gentle shaking. The reactions are suctioned dry with vacuum, washed three times with 75 μl ice cold 1× GTP Wash Solution (Perkin Elmer, AD0261), and immediately read on the Envision 2101 Multilabel Reader (Perkin Elmer) using excitation filter 320 nm and emission filter 615 nm.

The mark [3] stands for this setting: SPA format, [125I] ghrelin displacement, human GHSR1a membranes, Ki=IC50/(1+[ligand]/Kd).
[4] abbreviates: SPA format, [125I] ghrelin displacement, human GHSR1a membranes from HEK293 Tetracycline-Inducible cell line.

T1 sequence (Q92847 whole entry): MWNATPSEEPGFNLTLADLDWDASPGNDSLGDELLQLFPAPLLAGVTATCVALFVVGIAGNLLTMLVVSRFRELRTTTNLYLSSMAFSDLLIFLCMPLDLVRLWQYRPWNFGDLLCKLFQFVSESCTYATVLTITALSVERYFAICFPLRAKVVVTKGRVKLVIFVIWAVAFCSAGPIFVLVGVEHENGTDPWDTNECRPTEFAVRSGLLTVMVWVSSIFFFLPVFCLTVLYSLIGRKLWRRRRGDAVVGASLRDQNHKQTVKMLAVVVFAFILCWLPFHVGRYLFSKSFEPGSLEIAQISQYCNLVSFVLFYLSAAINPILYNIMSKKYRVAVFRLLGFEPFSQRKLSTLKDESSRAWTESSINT

In the case of `Cc1cc(-c2ccc3c(c2)CC[C@H]3N2CC3(CCN(C(=O)Cc4cn5nc(C)sc5n4)CC3)C2)ncn1` [Example 3Z, 7-[(2-methylimidazo[2,1-b][1,3,4]thiadiazol-6-yl)acetyl]-2-[(1R)-5-(6-methylpyrimidin-4-yl)-2,3-dihydro-1H-inden-1-yl]-2,7-diazaspiro[3.5]nonane], on human GHSR1a [1], the IC50 (in general, the concentration that inhibits the measured activity by half) came out at 6.78 nM and the Ki (in general, a measure of affinity in units of concentration, obtained from inhibition or displacement) is 6.07 nM. For the same molecule, the functional comment entry on human GHSR1a [2] is “inverse agonist”.
The matching figures for `COc1ccc(CC(=O)N2CCC3(CC2)CN(C2CCc4cc(-c5cc(OC)ncn5)ccc42)C3)nc1` (racemic) [Example 2F]: 35.9 nM, 50.2 nM and “inverse agonist”.
In the same order, the values of `COc1ccc(CC(=O)N2CCC3(CC2)CN(C2CCc4cc(-c5cc(C#N)ccn5)ccc42)C3)nc1` (racemic) [Example 2C] are 13.7 nM, 38 nM and “inverse agonist”.
As for `Cc1ccn2cc(CC(=O)N3CCC4(CC3)CN([C@@H]3CCc5cc(-n6nccn6)ccc53)C4)nc2c1` [Example 6C], at human GHSR1a [1], the IC50 was 37.2 nM and the Ki is 32.4 nM. Moreover, the functional comment entry on human GHSR1a [2] was “inverse agonist”.
In turn, `COc1ccc(CC(=O)N2CCC3(CC2)CN([C@@H]2CCc4cc(-n5nccn5)ccc42)C3)nc1` [Example 6D] gave an IC50 on human GHSR1a [1] of 3.44 nM. For the same molecule, the Ki on human GHSR1a [1] (setting [3]) is 3.32 nM. The functional comment entry on human GHSR1a [2] is recorded as “inverse agonist”.
On human GHSR1a [1], `O=C(Cc1ccc(C2CC2)cn1)N1CCC2(CC1)CN([C@@H]1CCc3cc(-c4ncccn4)ccc31)C2` [Example 3AF] displayed an IC50 of 7.41 nM and an inhibitory constant (Ki) of 6.13 nM. Moreover, the functional comment result at human GHSR1a [2] is listed as “inverse agonist”.
In the same order, the values of `CCc1cc(-c2ccc3c(c2)CC[C@H]3N2CC3(CCN(C(=O)Cc4ccc(OC)cn4)CC3)C2)ncn1` [Example 3AA] are 9.8 nM, 8.59 nM and “inverse agonist”.
The matching figures for `Cc1ccn2cc(CC(=O)N3CCC4(CC3)CN([C@@H]3CCc5cc(-c6cc(C#N)ncn6)ccc53)C4)nc2c1` [Example 3AP]: 27.2 nM, 24.4 nM and “inverse agonist”.
`COc1ccc(CC(=O)N2CCC3(CC2)CN(C2CCc4cc(-c5cccc(C)n5)ccc42)C3)nc1` (racemic) [Example 2J] had an IC50 at human GHSR1a [1] of 22 nM. Further, the functional comment entry on human GHSR1a [2] was “inverse agonist”.
Molecule “5-{(1R)-1-[7-(2,3-dihydro[1,4]dioxino[2,3-b]pyridin-6-yl)acetyl)-2,7-diazaspiro[3.5]non-2-yl]-2,3-dihydro-1H-inden-5-yl}pyridine-2-carboxamide [Example 9A]” had a 50% inhibitory concentration (IC50) on human GHSR1a [1] (setting [4]) of 15.9 nM. Also, the Ki at human GHSR1a [1] (setting [3]) was 13.9 nM. In addition, the functional comment entry at human GHSR1a [2] was “inverse agonist”.
Regarding `CCc1cnc(-c2ccc3c(c2)CC[C@H]3N2CC3(CCN(C(=O)Cc4ccc(OC)cc4)CC3)C2)nc1` [Example 3W], at human GHSR1a [1], the IC50 turned out to be 17.2 nM and the affinity, expressed as Ki, was 14.8 nM. In addition, the functional comment result on human GHSR1a [2] is “inverse agonist”.
The matching figures for `COc1ccc(CC(=O)N2CCC3(CC2)CN([C@@H]2CCc4cc(-c5ccn(C)n5)ccc42)C3)nc1` [Example 3N]: 82.6 nM, 71.3 nM and “inverse agonist”.
On human GHSR1a [1], `COc1ccc(CC(=O)N2CCC3(CC2)CN([C@@H]2CCc4cc(-c5ncc(C)cn5)ccc42)C3)nc1` [Example 3H] returned an IC50 of 9.51 nM. Further, affinity at human GHSR1a [1] (setting [3]) was put at a Ki of 9.17 nM. Also, the functional comment entry on human GHSR1a [2] is on record as “inverse agonist”.
On to `Cc1ccnc(-c2ccc3c(c2)CC[C@H]3N2CC3(CCN(C(=O)Cc4ccc5c(n4)OCCO5)CC3)C2)n1` [Example 3U], for which, at human GHSR1a [1], the IC50 amounted to 8.08 nM and the affinity corresponds to a Ki of 6.9 nM. Besides, at human GHSR1a [2], the functional comment entry is “inverse agonist”.
On human GHSR1a [1], `Cc1ccn2cc(CC(=O)N3CCC4(CC3)CN([C@@H]3CCc5cc(-c6ncccn6)ccc53)C4)nc2c1` [Example 3X] yielded an IC50 of 36.6 nM and a Ki of 31.6 nM. Besides, the functional comment result at human GHSR1a [2] is “inverse agonist”.
In the same order, the values of `COc1ccc(CC(=O)N2CCC3(CC2)CN([C@@H]2CCc4cc(-n5nccn5)ccc42)C3)c(NC(C)=O)c1` [Example 6H] are 21.7 nM, 19.4 nM and “inverse agonist”.
`Cc1ccc(CC(=O)N2CCC3(CC2)CN([C@@H]2CCc4cc(-n5nccn5)ccc42)C3)nc1` [Example 5C] displayed a Ki on human GHSR1a [1] (setting [3]) of 10.5 nM. Further, on human GHSR1a [2], the functional comment entry is given as “inverse agonist”.
At human GHSR1a [1], `Cc1cc(-c2ccc3c(c2)CC[C@H]3N2CC3(CCN(C(=O)Cc4cn5ccccc5n4)CC3)C2)ncn1` [Example 3L] registered an IC50 of 23 nM and a Ki of 20.2 nM. Besides, the functional comment entry on human GHSR1a [2] is on record as “inverse agonist”.
Consider `Cc1cc(-c2ccc3c(c2)CC[C@H]3N2CC3(CCN(C(=O)Cc4cn5nc(C)sc5n4)CC3)C2)nc(C)n1` [Example 3AO], for which, at human GHSR1a [1], the IC50 is 16.8 nM and the Ki is 15.1 nM. For the same molecule, on human GHSR1a [2], the functional comment result is recorded as “inverse agonist”.
The matching figures for `Cc1ccn2cc(CC(=O)N3CCC4(CC3)CN([C@@H]3CCc5cc(-c6ccc(C(N)=O)nc6)ccc53)C4)nc2c1` [Example 9F]: 22.8 nM, 20.2 nM and “inverse agonist”.
At human GHSR1a [1], `CCc1cnc(-c2ccc3c(c2)CC[C@H]3N2CC3(CCN(C(=O)Cc4ccc(OC)cn4)CC3)C2)nc1` [Example 3A, 2-[(1R)-5-(5-Ethylpyrimidin-2-yl)-2,3-dihydro-1H-inden-1-yl]-7-[(5-methoxypyridin-2-yl)acetyl]-2,7-diazaspiro[3.5]nonane] gave an IC50 of 9.46 nM. The molecule also returned a Ki on human GHSR1a [1] (setting [3]) of 9.03 nM. The functional comment entry on human GHSR1a [2] was “inverse agonist”.
Consider `CCc1ccc(CC(=O)N2CCC3(CC2)CN([C@@H]2CCc4cc(-c5ncccn5)ccc42)C3)nc1` [Example 5B], for which, on human GHSR1a [1], the IC50 amounted to 11.5 nM and the Ki was 10.4 nM. Besides, the functional comment result at human GHSR1a [2] is on record as “inverse agonist”.
In the same order, the values of `COc1ccc(CC(=O)N2CCC3(CC2)CN([C@@H]2CCc4cc(-c5cc(C)nc(C)n5)ccc42)C3)nc1` [Example 5G] are 39.9 nM, 33 nM and “inverse agonist”.
The matching figures for `Cc1cc(-c2ccc3c(c2)CC[C@H]3N2CC3(CCN(C(=O)Cc4cn5c(C)c(C)sc5n4)CC3)C2)ncn1` [Example 3AR]: 33.9 nM, 30.3 nM and “inverse agonist”.
`Cc1cc(-c2ccc3c(c2)CC[C@H]3N2CC3(CCN(C(=O)Cc4cn5cc(C)sc5n4)CC3)C2)ncn1` [Example 3F] had a Ki at human GHSR1a [1] of 4.37 nM. In addition, at human GHSR1a [1] (setting [4]), the IC50 came out at 5.02 nM. The functional comment result on human GHSR1a [2] is given as “inverse agonist”.
In turn, `COc1ccc(CC(=O)N2CCC3(CC2)CN([C@@H]2CCc4cc(-c5ncccn5)ccc42)C3)nc1` [Example 3G] displayed an IC50 at human GHSR1a [1] of 21.2 nM. Moreover, on human GHSR1a [2], the functional comment entry was “inverse agonist”.
At human GHSR1a [1], `Cc1cc(-c2ccc3c(c2)CC[C@H]3N2CC3(CCN(C(=O)Cc4ccc5c(n4)OCCO5)CC3)C2)ncn1` [Example 3D] displayed a half-inhibitory concentration (IC50) of 10.2 nM and a Ki of 8.91 nM. Further, the functional comment entry on human GHSR1a [2] is given as “inverse agonist”.
